In patent US20070254891A1, “Crystalline forms of 4-(2-fluorophenyl)-6-methyl-2-(piperazin-1-yl)thieno[2,3-d]pyrimidine” (Dynogen Pharmaceuticals, Inc., priority 2006, published 2007):

Columns and labels:
Format in all cases: physicochemical
[1] = 10 week stability study at 40° C./75% RH and 60° C./75% RH, light and dark
Procedure: (§1) Purity analysis was performed on an Agilent HP1100 system equipped with a diode array detector and using Chemstation V9 software. Gradient, Reverse Phase methods (duration approximately 40 minutes) were used in a HPLC1 system. A Thermo-Electron Corporation HyPurity C18 5 um 150×4.6 mm column was used at 25° C. Test samples were made-up of 0.2 mg/ml of the compound in acetonitrile:water (1:1 v/v). 10 μl of sample was injected into the column. The flow rate through the column was 1 ml/min and the detection wavelength, bandwidth was 254,8 nm. Phase A was 0.1% phosphoric acid in water and Phase B was 0.1% phosphoric acid in acetonitrile. The mobile phase timetable is shown below in Table 2.
Samples of Form I and II were tested at 40° C./75% RH and 60° C./75% RH in both light and dark conditions for up to 10 weeks. As the samples were located in temperature/humidity control chambers, the exposure to light was limited to normal laboratory light conditions with artificial light and some winter daylight through the windows.
Approximately 100 mg of each sample was weighed into plastic weighing boats and spread out to form an even thin layer for each of the temperature/humidity/light conditions, as shown in Table 6. The dark samples were protected from exposure to light by wrapping them in aluminum foil. The foil was pierced to allow exposure to humidity.
Time points chosen for HPLC analysis during the stability study were T=0, 1, 2, 5 and 10 weeks. At 10 weeks, the samples were analyzed using XRPD, DSC and polarized light microscopy.

[2] = Variable temperature XRPD (VT-XRPD); conditions: 25° C. to 245° C., then cooled to 30° C.
Procedure: Samples run under ambient conditions were prepared as flat plate specimens using powder without grinding unless otherwise stated. Approximately 1-2 mg of the sample was lightly pressed on a glass slide to obtain a flat surface. Samples run under non-ambient conditions (VT-XRPD) were mounted on a silicon wafer with heat conducting compound. The sample was then heated to the appropriate temperature at about 20° C./minute and subsequently held isothermally for about 1 minute before data collection was initiated.
Three samples were studied using variable temperature XRPD (VT-XRPD): Form I as received, substantially pure Form I as prepared in Example 3, and substantially pure Form II as prepared in Example 3. VT-XRPD studies were initially carried out on substantially pure Form I as prepared in Example 3 with measurements at 25° C., 50° C., 80° C., 150° C., 220° C., 225° C., 250° C. and cooling to 29° C. Prior to measurement of the last XRPD pattern, the material was crushed due to the growth of large crystals. An overlay of the XRPD patterns can be found in FIG. 4A.
An experiment was also carried out on Form I as received, with measurements at 26° C., 50° C., 150° C., 200° C., 210° C., 220° C., 230° C. and cooling to 27° C. An overlay of the XRPD patterns can be found in FIG. 4B. […] (see peak at ˜14.7 2θ). […]

[3] = Storage at 40° C./75% RH under ambient light (XRPD, HPLC purity, colour)
Procedure: as §1
Form I was characterized by pKa, LogP, LogPion and LogD determination and prediction, XRPD before and after storage at 40° C./75% RH for 4 weeks, PLM, DSC and TGA, ^1HNMR, solubility in water with pH measurement, HPLC purity before and after storage at 40° C./75% RH for 4 weeks, water content, GVS with XRPD and purity analysis after measurement, and VT-XRPD.
Form II has been characterized using XRPD before and after storage at 40° C./75% RH for 3 weeks, PLM, DSC and TGA, Solubility in water with pH measurement, HPLC purity, Water content, GVS with XRPD analysis after measurement, and VT-XRPD.

[4] = Gravimetric vapor sorption (GVS)
Procedure: GVS was used to determine the amount of water adsorbed by a sample. Briefly, samples were run on a Hiden IGASorp moisture sorption analyzer running CFRSorp software. Sample sizes were typically 10 mg. A moisture adsorption desorption isotherm was performed as outlined below in Table 3 (2 scans giving 1 complete cycle). Samples were loaded/unloaded at typical room humidity and temperature (40% RH, 25° C.). Samples were then analyzed by XRPD after GVS analysis, e.g., to determine whether any structural changes took place after adsorption of water. The standard isotherm was performed at 25° C. at 10% RH intervals over a 0-90% RH range.

[5] = Aqueous solubility with pH measurement; conditions: water, 25° C., 24 hours; hydrochloride
Procedure: Each sample was suspended in 0.25 ml of solvent (water) in an amount effective to produce a maximum final concentration of greater than or equal to about 10 mg/ml of the parent free form of the compound (i.e., adding excess sample to account for the weight of the salt). […] The filtrate was then diluted down 101 times.

For `Cc1cc2c(-c3ccccc3F)nc(N3CCNCC3)nc2s1.Cl` [Form II, 4-(2-fluorophenyl)-6-methyl-2-(piperazin-1-yl)thieno[2,3-d]pyrimidine hydrochloride], the Purity % ([1]; 40° C./75% RH, Dark, 1 week) was 99.9%, the Purity % ([1]; 40° C./75% RH, Dark, 2 weeks) was 100% and the Purity % ([1]; 40° C./75% RH, Dark, 5 weeks) was 100%. The Purity % ([1]; 40° C./75% RH, Dark, 10 weeks, hydrochloride) was 100%, the Purity % ([1]; 40° C./75% RH, Light, 1 week) was 99.9% and the Purity % ([1]; 40° C./75% RH, Light, 2 weeks) was 100%. For the same molecule, the Purity % ([1]; 40° C./75% RH, Light, 5 weeks, hydrochloride) was 99.9%, the Purity % ([1]; 40° C./75% RH, Light, 10 weeks, hydrochloride) was 99.9% and the Purity % ([1]; 60° C./75% RH, Dark, 1 week) was 99.9%. It also gave a Purity % ([1]; 60° C./75% RH, Dark, 2 weeks, hydrochloride) of 100%, a Purity % ([1]; 60° C./75% RH, Dark, 5 weeks) of 100% and a Purity % ([1]; 60° C./75% RH, Dark, 10 weeks, hydrochloride) of 99.9%. The Purity % ([1]; 60° C./75% RH, Light, 1 week) was 99.8%, the Purity % ([1]; 60° C./75% RH, Light, 2 weeks, hydrochloride) was 99.9% and the Purity % ([1]; 60° C./75% RH, Light, 5 weeks, hydrochloride) was 99.8%. The Purity % ([1]; 60° C./75% RH, Light, 10 weeks, hydrochloride) was 99.7%, the Purity % ([1]; time point 0 weeks, hydrochloride) was 99.9% and the “Stability as indicated by the HPLC data” value ([1]; up to 10 weeks, 40° C./75% RH and 60° C./75% RH) was “stable to ambient light levels as well as elevated temperature and humidity”. For the same molecule, the “Form on heating (VT-XRPD)” value [2] was “remained as Form II throughout the experiment”, the “Colour of material surface after storage” value ([3]; 3 weeks at 40° C./75% RH, ambient light) was “had not changed color” and the XRPD after storage ([3]; 40° C./75% RH for 4 days, samples from acetone and acetonitrile) was “remained unchanged”. For the same molecule, the “XRPD pattern after storage” value ([3]; 40° C./75% RH for three weeks) was “unchanged”, the “HPLC purity after storage” value ([3]; three weeks at 40° C./75% RH) was 100% and the “XRPD reanalysis after GVS” value ([4]; after one adsorption/desorption cycle) was “did not show any change”. The GVS weight increase ([4]; between 0 and 40% RH) was 1.4%, the “GVS weight increase, equivalent water” value ([4]; between 0 and 40% RH) was 0.29 moles of water and the “GVS weight increase, equivalent water” value ([4]; between 0 and 90% RH) was 0.39 moles of water. For the same molecule, the “GVS total weight increase” value ([4]; between 0 and 90% RH, single cycle, 25° C., hydrochloride) was 1.9%, the “Aqueous solubility (free base equivalent)” value [5] was 1600 µg/mL and the “pH of the solubility sample” value [5] was 6.39.
